According to the supplement of paper PMC10307832:

How the values were obtained:
Experiment in all cases: relative viability (nuclei count vs DMSO), 5 days (fraction); higher = more cells survive
Tipifarnib + Navitoclax = compound: Cn1cncc1[C@@](N)(c1ccc(Cl)cc1)c1ccc2c(c1)c(-c1cccc(Cl)c1)cc(=O)n2C [Tipifarnib] + CC1(C)CCC(c2ccc(Cl)cc2)=C(CN2CCN(c3ccc(C(=O)NS(=O)(=O)c4ccc(N[C@H](CCN5CCOCC5)CSc5ccccc5)c(S(=O)(=O)C(F)(F)F)c4)cc3)CC2)C1 [Navitoclax] (partner 0.5 µM)
How it was run: (§1)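 For relative viability, nuclei counts in treated wells were divided by those in vehicle wells. Lung cancer cell lines had been pin-tool dosed in 1536-well plates the day after seeding and cultured for 5 days, then fixed and stained in one step (final 0.05% Triton X-100, 1% formaldehyde, 1 ug/ml Hoechst) and imaged at 4×. Doses were one drug alone or a fixed anchor-drug dose plus five library-drug doses (not always all listed) in √10 steps, and values are duplicate-plate medians.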

Tipifarnib + Trametinib = compound: Cn1cncc1[C@@](N)(c1ccc(Cl)cc1)c1ccc2c(c1)c(-c1cccc(Cl)c1)cc(=O)n2C [Tipifarnib] + CC(=O)Nc1cccc(-n2c(=O)n(C3CC3)c(=O)c3c(Nc4ccc(I)cc4F)n(C)c(=O)c(C)c32)c1 [Trametinib] (partner 0.02 µM)
How it was run: as §1

Tipifarnib + Phenformin = compound: Cn1cncc1[C@@](N)(c1ccc(Cl)cc1)c1ccc2c(c1)c(-c1cccc(Cl)c1)cc(=O)n2C [Tipifarnib] + N=C(N)NC(=N)NCCc1ccccc1 [Phenformin] (partner 250 µM)
How it was run: as §1

Tipifarnib + Pemetrexed = compound: Cn1cncc1[C@@](N)(c1ccc(Cl)cc1)c1ccc2c(c1)c(-c1cccc(Cl)c1)cc(=O)n2C [Tipifarnib] + Nc1nc2[nH]cc(CCc3ccc(C(=O)N[C@@H](CCC(=O)O)C(=O)O)cc3)c2c(=O)[nH]1 [Pemetrexed] (partner 0.2 µM)
How it was run: as §1

Row | Cell Line | relative viability (Tipifarnib + Navitoclax; first compound 0.01 µM) | relative viability (Tipifarnib + Navitoclax; first compound 0.03162 µM) | relative viability (Tipifarnib + Navitoclax; first compound 0.1 µM) | relative viability (Tipifarnib + Navitoclax; first compound 0.3162 µM) | relative viability (Tipifarnib + Navitoclax; first compound 1 µM) | relative viability (Tipifarnib + Trametinib; first compound 0.01 µM) | relative viability (Tipifarnib + Trametinib; first compound 0.03162 µM) | relative viability (Tipifarnib + Trametinib; first compound 0.1 µM) | relative viability (Tipifarnib + Trametinib; first compound 0.3162 µM) | relative viability (Tipifarnib + Trametinib; first compound 1 µM) | relative viability (Tipifarnib + Phenformin; first compound 0.01 µM) | relative viability (Tipifarnib + Phenformin; first compound 0.03162 µM) | relative viability (Tipifarnib + Phenformin; first compound 0.1 µM) | relative viability (Tipifarnib + Phenformin; first compound 0.3162 µM) | relative viability (Tipifarnib + Phenformin; first compound 1 µM) | relative viability (Tipifarnib + Pemetrexed; first compound 0.01 µM) | relative viability (Tipifarnib + Pemetrexed; first compound 0.03162 µM) | relative viability (Tipifarnib + Pemetrexed; first compound 0.1 µM) | relative viability (Tipifarnib + Pemetrexed; first compound 0.3162 µM) | relative viability (Tipifarnib + Pemetrexed; first compound 1 µM)
1 | NCI-H441 | 0.498 | 0.255 | 0.481 | 0.294 | 0.253 | 0.429 | 0.319 | 0.372 | 0.228 | 0.225 | 0.984 | 0.619 | 0.465 | 0.525 | 0.329 | 0.269 | 0.286 | 0.294 | 0.307 | 0.254
2 | NCI-H1793 | 0.409 | 0.481 | 0.441 | 0.373 | 0.353 | 0.426 | 0.37 | 0.342 | 0.381 | 0.339 | 0.357 | 0.371 | 0.354 | 0.194 | 0.267 | 0.89 | 0.748 | 0.703 | 0.522 | 0.389
3 | NCI-H23 | 1.11 | 0.883 | 0.657 | 0.562 | 0.406 | 0.368 | 0.493 | 0.398 | 0.292 | 0.204 | 0.845 | 0.752 | 0.564 | 0.435 | 0.346 | 0.714 | 0.602 | 0.588 | 0.466 | 0.242
4 | HARA | 1.18 | 1.14 | 1.18 | 1.14 | 1.13 | 0.784 | 0.77 | 0.635 | 0.588 | 0.508 | 0.52 | 0.494 | 0.501 | 0.412 | 0.156 | 0.23 | 0.32 | 0.293 | 0.297 | 0.249
5 | NCI-H1792 | 0.717 | 0.583 | 0.466 | 0.364 | 0.108 | 0.409 | 0.241 | 0.246 | 0.242 | 0.239 |  |  | 0.125 | 0.0695 | 0.114 | 0.681 | 0.332 | 0.416 | 0.157 | 0.118
6 | NCI-H1703 | 1.1 | 0.563 | 0.27 | 0.359 | 0.364 |  |  |  |  |  |  |  |  |  |  |  |  |  |  | 
7 | NCI-H2342 |  |  |  |  |  | 0.778 | 0.968 | 0.803 | 0.547 | 0.65 | 0.676 | 0.649 | 0.491 | 0.487 | 0.399 | 0.906 | 0.776 | 0.71 | 0.64 | 0.509
8 | CAL-12T | 1.21 | 1.1 | 0.768 | 0.526 | 0.716 | 0.359 | 0.289 | 0.234 | 0.222 | 0.177 | 0.533 | 0.414 | 0.379 | 0.378 | 0.231 | 1.2 | 1.09 | 0.741 | 0.472 | 0.62
9 | NCI-H727 | 0.622 | 0.53 | 0.421 | 0.41 | 0.277 | 0.425 | 0.395 | 0.379 | 0.384 | 0.404 | 0.529 | 0.501 | 0.544 | 0.617 | 0.539 |  |  |  |  | 
10 | NCI-H2085 | 0.862 | 0.788 | 0.546 | 0.611 | 0.514 | 0.58 | 0.603 | 0.44 | 0.408 | 0.366 | 0.777 | 0.442 | 0.433 | 0.385 | 0.532 | 0.874 | 0.677 | 0.693 | 0.525 | 0.539
11 | NCI-H1395 | 1.17 | 0.936 | 0.978 | 0.835 | 0.799 | 1.25 | 0.966 | 0.946 | 0.862 | 0.967 | 0.444 | 0.398 | 0.428 | 0.436 | 0.348 | 0.826 | 0.76 | 0.746 | 0.651 | 0.508
12 | NCI-H1648 |  |  |  |  |  | 0.481 | 0.414 | 0.523 | 0.466 | 0.481 |  |  |  |  |  | 0.6 | 0.746 | 0.842 | 0.636 | 0.305
13 | NCI-H460 | 1.13 | 0.905 | 0.531 | 0.252 | 0.0922 | 0.142 | 0.0861 | 0.0817 | 0.0529 | 0.0386 | 0.516 | 0.376 | 0.295 | 0.224 | 0.0277 | 0.0634 | 0.0696 | 0.0701 | 0.06 | 0.0551
14 | A549 | 1.18 | 0.981 | 0.678 | 0.531 | 0.341 |  |  |  |  |  | 0.181 | 0.116 | 0.108 | 0.0861 | 0.0622 |  |  |  |  | 
15 | IA-LM | 0.388 | 0.378 | 0.296 | 0.251 | 0.164 |  |  |  |  |  |  |  |  |  |  |  |  |  |  | 
16 | EKVX | 1.01 | 0.861 | 0.841 | 0.744 | 0.49 | 0.261 | 0.35 | 0.244 | 0.298 | 0.264 | 0.238 | 0.214 | 0.229 | 0.211 | 0.173 | 0.433 | 0.396 | 0.39 | 0.411 | 0.289
17 | ChaGo-K-1 | 1.07 | 1.11 | 1.09 | 0.933 | 0.626 | 0.96 | 0.942 | 0.868 | 0.853 | 0.674 | 0.451 | 0.518 | 0.464 | 0.412 | 0.273 | 0.262 | 0.274 | 0.265 | 0.27 | 0.272
18 | NCI-H1755 | 1.02 | 0.971 | 0.968 | 0.776 | 0.851 | 0.793 | 0.732 | 0.718 | 0.723 | 0.714 | 0.703 | 0.594 | 0.564 | 0.577 | 0.418 | 0.41 | 0.524 | 0.446 | 0.474 | 0.425
19 | NCI-H2228 | 0.878 | 0.71 | 1.06 | 0.735 | 0.527 | 0.542 | 0.378 | 0.385 | 0.303 | 0.177 | 0.25 | 0.286 | 0.379 | 0.222 | 0.138 | 0.364 | 0.34 | 0.361 | 0.296 | 0.333
